Literature values in patent EP2335686A1, “An aqueous intravenous nanosuspension with reduced adverse effects” (LEK Pharmaceuticals d.d., priority 2009, dated 2011).
Converted amounts (≈) assume the structure as drawn.

CC(C)c1cccc(C(C)C)c1O [propofol]
aqueous solubility at room temperature: 0.0164 µg/mL (≈ 0.092 µM)
